# According to patent US6747061B2, “N-substituted dithiocarbamates for the treatment of biological disorders” (AtheroGenics, Inc., priority 2000, dated 2004):
# Like-named read-outs stand apart in the source and are kept apart here.
# Legend:
# [1] = test system: DLD-1 colorectal carcinoma cells; assay: Anti-proliferative effect on DLD-1 cells (CellTiter96); format: cell-based; details: Homo sapiens, read-out: proliferation, percent of control; for activity at 1 µM: NDE 1 μM; for activity at 10 µM: NDE 10 μM; for activity at 100 µM: NDE 100 μM
# Description: All primary cells and cell lines were commercially available. The transformed cell lines were grown in Dulbecco's Modified Eagle Media supplemented with 2 mM L-glutamine, 50 I.U. penicillin, 50 μg/ml streptomycin, nonessential amino acids and 10% heat-inactivated fetal bovine serum. HASM, HAEC and NHBE cells were cultured exactly as described by the commercial provider (Clonetics, San Diego, Calif.). All cell lines were grown at 37° C. in 5% CO2, with the media being changed every 48 hours.
# For the experimental assays, cells were plated in 96-well plates and grown until ˜35% confluency was achieved. For the transformed cell lines, cells were plated at low density and grown for 72 hours prior to being stimulated, whereas the non-transformed cells were plated at a higher density and grown for 24 hours prior to being stimulated.
# Cells were treated with dithiocarbamate (0.1-100 μM)±5FU (0.01-10 μM) and retreated after 48 hours when media was changed. Cell growth was assessed using the CellTiter96® assay system from Promega (Madison, Wis.). Each experimental condition was performed in triplicate or quadruplicate, with the number of experiments for each cell line being three.
# Statistical significance was assessed using an ANOVA with the appropriate post-hoc analysis as well as Students t-tests. *=p<0.05 when compared to control-treated (DMSO) cells. #=p<0.05 when compared to 5FU-treated cells.
# [2] = test system: 15-LOX-2; assay: 15-Lipoxygenase Form-2 assay: immunoblot of TNF-α and IL-4 co-induced 15-LOX-2 expression in NHBE cells; format: cell-based; details: Homo sapiens, TNF-α 10 ng/ml + IL-4 20 ng/ml, 16-20 hours
# Description: The 15-Lipoxygenase Form-2 (15-LOX-2) Assay is an immunoblot assay to measure tumor necrosis factor alpha (TNF-α) and interleukin-4 (IL-4) co-induced expression of 15-LOX-2 in Normal Human Epithelial Cells.
# Normal human bronchial epithelial cells (NHBE) were purchased from Clonetics. They were cultured in BEGM (Clonetics) media without retinoic acid. In a typical experiment, the cells were seeded in 24-well plates. Media was changed to BEGM without retinoic acid (RA) and hydrocortisone (HC) 24 hour before dosing. Cells were then exposed to TNF-α (10 ng/ml) and IL-4 (20 ng/ml) purchased from Boehringer Mannheim in the absence or presence of compounds in fresh BEGM without RA and HC for 16-20 hours at 37° C. To establish a dose curve for each compound, three concentrations in 2 fold increments were used. All compounds were dissolved in DMSO and the final concentration of DMSO was 0.2%.
# Cells were washed with cold 1×PBS three times and then lysed by 100 μl of Tris-Glycine SDS sample buffer (NOVEX). Lysates were fractionated by 4-20% gradient SDS-PAGE (NOVEX), transferred onto nitrocellulose filters (MSI) and incubated with the filters in blocking buffer (5% Blotto in 1×Tris buffered saline (TBS)+0.05% Tween 20) for 1 hour with gentle shaking. […]
smiles,measurement,setting,value
"COC(=O)CCCSC(=S)NCC1CCCO1 (stereo not shown) [NDE, 4-(tetrahydrofuran-2-ylmethylthiocarbamoylsulfanyl)-butyric acid methyl ester]",activity at 1 µM,[1]; 24 HOURS,116 ± 3.72%
same,activity at 1 µM,[1]; 48 HOURS,107 ± 7.55%
same,activity at 1 µM,[1]; 72 HOURS,133 ± 10.3%
same,activity at 10 µM,[1]; 24 HOURS,97.1 ± 1.79%
same,activity at 10 µM,[1]; 48 HOURS,104 ± 13.3%
same,activity at 10 µM,[1]; 72 HOURS,142 ± 14.9%
same,activity at 100 µM,[1]; 24 HOURS,53.8 ± 5.28%
same,activity at 100 µM,[1]; 48 HOURS,39.8 ± 6.27%
same,activity at 100 µM,[1]; 72 HOURS,0.27 ± 0.27%
same,IC50,[2],4.5 µM
